The MIC is the lowest concentration found to suppress growth.

Values after ≈ are worked out from the molar mass of the structure shown. Like-named read-outs stand apart in the source and are kept apart here.

What all share (type): cell-based
Experiment [1] has as its system Bacteroides thetiotaomicron ATCC 29741. The experiment is described as follows: MIC by broth microdilution (CLSI), QC strain. On the technique in general: In broth dilution the organism is exposed to a series of concentrations in liquid medium.
The subject of experiment [2] is Faecalibacterium prausnitzii A2-165. The experiment is described as follows: MIC by broth microdilution (CLSI), type strain. The conditions noted are these: for MIC: test strain A2-165; for susceptibility category (S/I/R) by MIC breakpoints: strain A2-165.
Experiment [3] deals with Faecalibacterium prausnitzii EB-FPDK3. The experiment is described as follows: MIC by broth microdilution (CLSI). The conditions noted are these: for MIC: test strain EB-FPDK3; for susceptibility category (S/I/R) by MIC breakpoints: strain EB-FPDK3.
For experiment [4], the system named is Faecalibacterium prausnitzii EB-FPDK9. The experiment is described as follows: MIC by broth microdilution (CLSI). The conditions noted are these: for MIC: test strain EB-FPDK9; for susceptibility category (S/I/R) by MIC breakpoints: strain EB-FPDK9.
Experiment [5] deals with Faecalibacterium prausnitzii EB-FPDK11. The experiment is described as follows: MIC by broth microdilution (CLSI). The conditions noted are these: for MIC: test strain EB-FPDK11; for susceptibility category (S/I/R) by MIC breakpoints: strain EB-FPDK11.
In experiment [6] the test system is Faecalibacterium prausnitzii EB-FPYYK1. The experiment is described as follows: MIC by broth microdilution (CLSI). The conditions noted are these: for MIC: test strain EB-FPYYK1; for susceptibility category (S/I/R) by MIC breakpoints: strain EB-FPYYK1.
Experiment [7] relates to Faecalibacterium prausnitzii strains of the present invention. The experiment is described as follows: Antimicrobial susceptibility, summary for all strains. The conditions noted are these: all Faecalibacterium prausnitzii strains of Table 5.
[8] abbreviates: Faecalibacterium prausnitzii, A2165, read-out: MIC.
The mark [9] stands for this setting: Faecalibacterium prausnitzii, EBFPDK3, read-out: MIC.
[10] abbreviates: Faecalibacterium prausnitzii, EBFPDK9, read-out: MIC.
Where [11] appears, read: Faecalibacterium prausnitzii, EBFPDK11, read-out: MIC.
Setting [12] is: Faecalibacterium prausnitzii, EBFPYYK1, read-out: MIC.

For the compound `Cc1ncc([N+](=O)[O-])n1CCO` [MTZ, metronidazole], the MIC was 2 µg/mL (≈ 11.7 µM) in experiment [1] (Bacteroides, ATCC29741); 4 µg/mL (≈ 23.4 µM) in experiment [2] (setting [8]); 1 µg/mL (≈ 5.84 µM) in experiment [3] (setting [9]); less than 0.25 µg/mL in experiment [4] (setting [10]); 0.5 µg/mL (≈ 2.92 µM) in experiment [5] (setting [11]); 2 µg/mL (≈ 11.7 µM) in experiment [6] (setting [12]). The “susceptibility category (S/I/R) by MIC breakpoints” value (“susceptibility category (S/I/R)” below) in experiment [2] (MTZ breakpoints), in experiment [3] (MTZ breakpoints), in experiment [4] (MTZ breakpoints), in experiment [5] (MTZ breakpoints) and in experiment [6] (MTZ breakpoints) was “(S) (≤8)” in each case. Also, in experiment [7], the “susceptibility or resistance of all the strains to the antibiotic” value was “susceptibility”.

On to `COc1c(N2C[C@@H]3CCCN[C@@H]3C2)c(F)cc2c(=O)c(C(=O)O)cn(C3CC3)c12` [MXF, moxifloxacin], for which the MIC in experiment [1] (Bacteroides, ATCC29741) was 8 µg/mL (≈ 19.9 µM); in experiment [2] (setting [8]) it was 16 µg/mL (≈ 39.9 µM); in experiment [3] (setting [9]), more than 32 µg/mL; in experiment [4] (setting [10]), 32 µg/mL (≈ 79.7 µM); in experiment [5] (setting [11]), 32 µg/mL (≈ 79.7 µM); in experiment [6] (setting [12]) it was more than 32 µg/mL. Moreover, the “susceptibility category (S/I/R)” value in experiment [2] (MXF breakpoints), in experiment [3] (MXF breakpoints), in experiment [4] (MXF breakpoints), in experiment [5] (MXF breakpoints) and in experiment [6] (MXF breakpoints) was “(R) (≥8)” each time.

With `C[C@@H](O)[C@H]1C(=O)N2C(C(=O)O)=C(S[C@@H]3CN[C@H](C(=O)N(C)C)C3)[C@H](C)[C@H]12` [MEM, meropenem], the MIC in experiment [1] (Bacteroides, ATCC29741) is 0.5 µg/mL (≈ 1.3 µM); in experiment [2] (setting [8]), more than 64 µg/mL; in experiment [3] (setting [9]), more than 64 µg/mL; in experiment [4] (setting [10]), more than 64 µg/mL; in experiment [5] (setting [11]) it was more than 64 µg/mL; in experiment [6] (setting [12]) it was more than 64 µg/mL. Moreover, the “susceptibility category (S/I/R)” value in experiment [2] (MEM breakpoints), in experiment [3] (MEM breakpoints), in experiment [4] (MEM breakpoints), in experiment [5] (MEM breakpoints) and in experiment [6] (MEM breakpoints) was “(R) (≥16)” each time.

Regarding piperacillin-tazobactam [PTZ], the MIC in experiment [1] (QC ATCC 29741) is listed as 8/4; in experiment [2], >256/4; in experiment [3], 32/4; in experiment [4] it was 32/4; in experiment [5], >256/4; in experiment [6] it was >256/4. The “susceptibility category (S/I/R)” value in experiment [2] (PTZ breakpoints) is recorded as “(R) (≥128/4)”; in experiment [3] (PTZ breakpoints) it was “(S) (≤32/4)”; in experiment [4] (PTZ breakpoints) it was “(S) (≤32/4)”; in experiment [5] (PTZ breakpoints) it was “(R) (≥128/4)”; in experiment [6] (PTZ breakpoints) it was “(R) (≥128/4)”.

Take `CCC[C@@H]1C[C@@H](C(=O)N[C@@H]([C@H]2O[C@H](SC)[C@H](O)[C@@H](O)[C@H]2O)[C@H](C)Cl)N(C)C1` [CLI, clindamycin]: the “susceptibility category (S/I/R)” value in experiment [2] (CLI breakpoints), in experiment [3] (CLI breakpoints), in experiment [4] (CLI breakpoints), in experiment [5] (CLI breakpoints) and in experiment [6] (CLI breakpoints) was “(S) (≤2)” throughout. Moreover, the MIC in experiment [2] (setting [8]), in experiment [3] (setting [9]), in experiment [4] (setting [10]), in experiment [5] (setting [11]) and in experiment [6] (setting [12]) was not above 0.125 µg/mL each time.

In the case of `CO/N=C(\C(=O)N[C@@H]1C(=O)N2C(C(=O)O)=CCS[C@H]12)c1csc(N)n1` [CTZ, ceftizoxime], the MIC amounted to 16 µg/mL (≈ 41.7 µM) in experiment [1] (Bacteroides, ATCC29741); 64 µg/mL (≈ 167 µM) in experiment [2] (setting [8]); 16 µg/mL (≈ 41.7 µM) in experiment [3] (setting [9]); 128 µg/mL (≈ 334 µM) in experiment [4] (setting [10]); 128 µg/mL (≈ 334 µM) in experiment [5] (setting [11]); 128 µg/mL (≈ 334 µM) in experiment [6] (setting [12]). For the same compound, the “susceptibility category (S/I/R)” value in experiment [2] (CTZ breakpoints) is on record as “(I) (64)”; in experiment [3] (CTZ breakpoints) it was “(S) (≤32)”; in experiment [4] (CTZ breakpoints), “(R) (≥128)”; in experiment [5] (CTZ breakpoints), “(R) (≥128)”; in experiment [6] (CTZ breakpoints) it was “(R) (≥128)”.

As to `O=C(N[C@H](CO)[C@H](O)c1ccc([N+](=O)[O-])cc1)C(Cl)Cl` [CHL, chloramphenicol], the MIC is 8 µg/mL (≈ 24.8 µM) in experiment [1] (Bacteroides, ATCC29741); 64 µg/mL (≈ 198 µM) in experiment [2] (setting [8]); 8 µg/mL (≈ 24.8 µM) in experiment [3] (setting [9]); 32 µg/mL (≈ 99 µM) in experiment [4] (setting [10]); 8 µg/mL (≈ 24.8 µM) in experiment [5] (setting [11]); 256 µg/mL (≈ 792 µM) in experiment [6] (setting [12]). The “susceptibility category (S/I/R)” value in experiment [2] (CHL breakpoints) is “(R) (≥32)”; in experiment [3] (CHL breakpoints) it was “(S) (≤8)”; in experiment [4] (CHL breakpoints), “(R) (≥32)”; in experiment [5] (CHL breakpoints), “(S) (≤8)”; in experiment [6] (CHL breakpoints) it was “(R) (≥32)”.

These data come from patent US20250099511A1, “PHARMACEUTICAL COMPOSITION FOR PREVENTING OR TREATING CANCER” (ENTEROBIOME INC., priority 2022, published 2025).
